Laboratory results as given in ChEMBL document CHEMBL4359811, “Development of Potent and Selective Pyrazolopyrimidine IRAK4 Inhibitors” (J Med Chem, 2019).
Values after ≈ are worked out from the molar mass of the structure shown.

Key:
[1] = target: T1, Interleukin-1 receptor-associated kinase 4 (Homo sapiens, UniProt Q9NWZ3); experiment: Inhibition of IRAK4 in human THP1-Xblue-MD2-CD14 cells assessed as reduction in LPS-induced NFkappaB transcription by measuring alkaline phosphatase level preincubated for 1 hr followed by LPS stimulation and measured after 20 hrs by quanti-blue reagent based reporter assay
T1 sequence (Q9NWZ3 whole entry): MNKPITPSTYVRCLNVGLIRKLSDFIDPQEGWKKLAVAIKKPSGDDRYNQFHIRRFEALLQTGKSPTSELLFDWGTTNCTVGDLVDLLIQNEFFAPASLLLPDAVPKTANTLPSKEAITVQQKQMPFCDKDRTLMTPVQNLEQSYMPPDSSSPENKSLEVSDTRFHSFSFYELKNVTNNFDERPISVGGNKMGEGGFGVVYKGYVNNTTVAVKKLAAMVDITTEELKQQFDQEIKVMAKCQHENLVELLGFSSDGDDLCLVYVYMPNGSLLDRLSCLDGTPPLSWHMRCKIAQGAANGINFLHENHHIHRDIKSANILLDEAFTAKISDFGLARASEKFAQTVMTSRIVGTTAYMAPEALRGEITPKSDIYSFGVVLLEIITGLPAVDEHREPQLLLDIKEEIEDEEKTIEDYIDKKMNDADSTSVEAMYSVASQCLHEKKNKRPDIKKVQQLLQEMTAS

[2] = Kinetic aqueous solubility of the compound in PBS buffer at pH 7.4 incubated for 24 hrs under shaking condition by LC-CLND assay; type: physicochemical; settings: for solubility kinetic at 24 h: PBS buffer, pH 7.4, read-out: Kinetic_solubility
[3] = target: T1, Interleukin-1 receptor-associated kinase 4; experiment: Inhibition of human recombinant full length His6-tagged IRAK4 expressed in baculovirus expression system using H-KKARFSRFAGSSPSQSSMVAR as substrate incubated for 90 mins by fluorescence polarisation assay
[4] = Apparent permeability from apical to basolateral side in MDCK cells at 10 uM incubated for 180 mins and measured up to 180 min by LC-MS/MS analysis; type: ADME, cell-based, Canis lupus familiaris; settings: dog
[5] = target: Interleukin-1 receptor-associated kinase 1 (Homo sapiens, UniProt P51617); experiment: Inhibition of human recombinant full length N-terminal His6-tagged IRAK1 (Argl94 to Ser712 residues) expressed in insect cells using H-KKARFSRFAGSSPSQSSMVAR as substrate incubated for 60 mins by fluorescence polarisation assay
Homo sapiens = organism: Homo sapiens; experiment: Selectivity ratio, ratio of Ki for human recombinant full length N-terminal His6-tagged IRAK1 (Argl94 to Ser712 residues) expressed in insect cells to Ki for human recombinant full length His6-tagged IRAK4 expressed in baculovirus expression system
[6] = target: T1, Interleukin-1 receptor-associated kinase 4; experiment: Inhibition of recombinant IRAK4 (unknown origin) using KKARFSRFAGSSPSQSSMVAR as substrate in presence of [gamma33P]-ATP by liquid scintillation counting method
[7] = Cytotoxicity against human THP1-Xblue-MD2-CD14 cells assessed as reduction in cell viability up to 20 uM preincubated for 1 hr followed by LPS stimulation and measured after 20 hrs; type: cell-based
[8] = Lipophilicity, log D of the compound; type: physicochemical; settings: octanol/water
[9] = Protein binding in human plasma at 5 uM incubated for 4 hrs by LC-MS/MS analysis; type: ADME, cell-free; settings: read-out: PPB (converted)
[10] = Blood clearance in mouse at 1 mg/kg, iv; type: ADME, organism-based; settings: whole blood
[11] = Oral bioavailability in mouse at 5 mg/kg; type: ADME, organism-based; settings: in vivo
[12] = Volume of distribution at steady state in mouse at 1 mg/kg, iv; type: ADME, organism-based; settings: in vivo, read-out: Vdss
[13] = AUC (infinity) in mouse at 5 mg/kg, po; type: ADME, organism-based; parameters: dose 5 mg/kg, route oral, time infinity; settings: in vivo
[14] = Protein binding in mouse plasma at 5 uM incubated for 4 hrs by LC-MS/MS analysis; type: ADME, cell-free; settings: read-out: PPB (converted)
[15] = Cmax in mouse at 5 mg/kg, po; type: ADME, organism-based; parameters: dose 5 mg/kg, route oral; settings: in vivo
[16] = target: T2, Interleukin-1 receptor-associated kinase 4 (Homo sapiens) (UniProt Q9NWZ3); experiment: Inhibition of human recombinant full length His6-tagged IRAK4 expressed in baculovirus expression system at 1 uM relative to control
T2 sequence (whole entry): T1 sequence (Q9NWZ3 whole entry)

[17] = Oral bioavailability in mouse at 30 mg/kg; type: ADME, organism-based; settings: in vivo
[18] = Cmax in mouse at 100 mg/kg, po administered as suspension in MCT; type: ADME, organism-based; parameters: dose 100 mg/kg, route oral; settings: in vivo
[19] = Oral bioavailability in mouse at 100 mg/kg administered as suspension in MCT; type: ADME, organism-based; settings: in vivo
[20] = Oral bioavailability in mouse at 10 mg/kg; type: ADME, organism-based; settings: in vivo
[21] = AUC (infinity) in mouse at 10 mg/kg, po; type: ADME, organism-based; parameters: dose 10 mg/kg, route oral, time infinity; settings: in vivo
[22] = Cmax in mouse at 30 mg/kg, po; type: ADME, organism-based; parameters: dose 30 mg/kg, route oral; settings: in vivo
[23] = AUC (infinity) in mouse at 100 mg/kg, po administered as suspension in MCT; type: ADME, organism-based; parameters: dose 100 mg/kg, time infinity, route oral; settings: in vivo
[24] = Cmax in mouse at 10 mg/kg, po; type: ADME, organism-based; parameters: dose 10 mg/kg, route oral; settings: in vivo
[25] = AUC (infinity) in mouse at 30 mg/kg, po; type: ADME, organism-based; parameters: dose 30 mg/kg, time infinity, route oral; settings: in vivo

Chain of Interleukin-1 receptor-associated kinase 1 (P51617 whole entry): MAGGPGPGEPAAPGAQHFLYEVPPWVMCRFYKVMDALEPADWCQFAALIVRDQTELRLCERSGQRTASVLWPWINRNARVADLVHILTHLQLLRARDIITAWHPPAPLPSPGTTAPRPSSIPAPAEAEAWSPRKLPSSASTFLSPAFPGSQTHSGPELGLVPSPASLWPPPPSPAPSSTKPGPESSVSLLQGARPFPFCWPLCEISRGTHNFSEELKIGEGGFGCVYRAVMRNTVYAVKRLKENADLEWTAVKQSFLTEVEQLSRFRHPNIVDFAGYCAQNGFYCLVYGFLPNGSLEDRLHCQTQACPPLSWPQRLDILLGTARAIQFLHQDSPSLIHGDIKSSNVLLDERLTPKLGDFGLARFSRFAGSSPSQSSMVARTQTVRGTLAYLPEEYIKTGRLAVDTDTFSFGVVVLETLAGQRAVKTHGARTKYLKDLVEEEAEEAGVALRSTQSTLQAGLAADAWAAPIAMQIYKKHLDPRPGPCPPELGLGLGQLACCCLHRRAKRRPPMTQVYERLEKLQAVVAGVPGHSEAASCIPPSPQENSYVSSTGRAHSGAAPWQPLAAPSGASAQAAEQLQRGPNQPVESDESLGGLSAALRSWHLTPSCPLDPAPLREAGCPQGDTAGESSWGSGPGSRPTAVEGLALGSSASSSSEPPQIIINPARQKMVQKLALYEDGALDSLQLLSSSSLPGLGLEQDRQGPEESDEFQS

Structure (SMILES)	IC50 [1] [nM]	solubility kinetic at 24 h [2] [µM]	Ki [3] [nM]	Papp A→B at 3 h, 10 µM [4] [×10⁻⁶ cm/s]	Ki [5] [nM]	also measured
CC1(C)Cc2cc(NC(=O)c3cnn4cc(C5CC5)cnc34)c(N3CCOCC3)cc2O1	> 20000	1 (≈ 0.434 µg/mL)	–	–	–	–
CC1(C)Cc2cc(NC(=O)c3cnn4cccnc34)c(N3CCN(CC(N)=O)CC3)cc2O1	25	10 (≈ 4.5 µg/mL)	2.1	2.6	–	–
O=C(Nc1cc2[nH]cnc2cc1N1CCC(CO)CC1)c1cnn2cccnc12	330	–	6.7	–	> 5700	–
CN1CCC2(CC1)Cc1cc(NC(=O)c3cnn4cccnc34)c(N3CCOCC3)cc1O2	230	130 (≈ 58.3 µg/mL)	7.4	13	–	–
CC1(C)Cc2cc(NC(=O)c3cnn4cc(O)cnc34)c(N3CCOCC3)cc2O1	330	3.1 (≈ 1.27 µg/mL)	3.2	14	–	–
CC1(C)Cc2cc(NC(=O)c3cnn4cccnc34)c(N3CCC(CO)CC3)cc2O1	38	95 (≈ 40 µg/mL)	–	16	–	Ratio Ki (Homo sapiens): 210
CC1(C)Cc2cc(NC(=O)c3cnn4cc(C(F)F)cnc34)c(N3CCOCC3)cc2O1	1200	2.5 (≈ 1.11 µg/mL)	31	–	–	–
CC1(C)Cc2cc(NC(=O)c3cnn4cc(CO)cnc34)c(N3CCOCC3)cc2O1	66	15 (≈ 6.35 µg/mL)	–	18	–	–
COc1cc2cccnc2cc1NC(=O)c1cnn2cccnc12	–	–	–	–	–	Ki [6]: > 30000 nM
CCn1c(N2CCOCC2)nc2cc(N3CCC(CO)CC3)c(NC(=O)c3cnn4cccnc34)cc21	910	–	95	–	> 10000	–
O=C(Nc1cc2ccc(N3CCOCC3)nc2cc1N1CCCCC1)c1cnn2cccnc12	1300	–	290	–	4700	–
NCC1CCN(c2cc3ncccc3cc2NC(=O)c2cnn3cccnc23)CC1	41	22 (≈ 8.83 µg/mL)	2	–	510	Activity [7]: Non-Toxic; Ratio Ki (Homo sapiens): > 200; logD [8]: 0.79
O=C(Nc1cc2cnc(N3CCOCC3)nc2cc1N1CCCCC1)c1cnn2cccnc12	3000	–	170	–	5400	–
O=C(Nc1cc2cccnc2cc1N1CCC(CO)CC1)c1cnn2cccnc12	35	1 (≈ 0.402 µg/mL)	1.7	–	400	Activity [7]: Non-Toxic; Ratio Ki (Homo sapiens): > 200; logD [8]: 3.1
Cn1c(N2CCOCC2)nc2cc(N3CCC(CO)CC3)c(NC(=O)c3cnn4cccnc34)cc21	97	–	1.8	2.4	> 6100	fraction unbound at 4 h, 5 µM [9]: 0.12; clearance [10]: 23 mL/min/kg; bioavailability [11]: 3%; Vd [12]: 0.4 L/kg; AUC(0-inf) [13]: 0.5 µM·h; fraction unbound at 4 h, 5 µM [14]: 0.05; Cmax ([15]; read-out: Cmax): 200 nM
CC1(C)Cc2cc(NC(=O)c3cnn4cccnc34)c(N3CCC(C(N)=O)CC3)cc2O1	53	7.1 (≈ 3.08 µg/mL)	–	–	–	–
O=C(Nc1cc2[nH]c(N3CCOCC3)nc2cc1N1CCC(CO)CC1)c1cnn2cccnc12	250	–	1.7	–	> 5500	–
COc1cc2ccccc2cc1NC(=O)c1cnn2cccnc12	–	–	–	–	–	Ki [6]: 610 nM
COc1cc2cc[nH]c2cc1NC(=O)c1cnn2cccnc12	–	–	–	–	–	Ki [6]: 790 nM
O=C(Nc1cc2oc(N3CCOCC3)nc2cc1N1CCC(CO)CC1)c1cnn2cccnc12	60	–	1.2	–	340	–

Structure (SMILES)	IC50 [1] [nM]	solubility kinetic at 24 h [2] [µM]	Ki [3] [nM]	Papp A→B at 3 h, 10 µM [4] [×10⁻⁶ cm/s]	Ki [5] [nM]	also measured
CC1(C)Cc2cc(NC(=O)c3cnn4cccnc34)c(N3CCNCC3)cc2O1	56	110 (≈ 43.2 µg/mL)	–	–	–	–
CN(C)c1ccc2cc(NC(=O)c3cnn4cccnc34)c(N3CCCCC3)cc2n1	98	–	26	–	500	–
CC1(C)Cc2cc(NC(=O)c3cnn4cccnc34)c(N3CCOCC3)cc2O1	170	1 (≈ 0.393 µg/mL)	5.3	14	–	Ratio Ki (Homo sapiens): 220
CN(C)c1nc2cc(N3CCC(CO)CC3)c(NC(=O)c3cnn4cccnc34)cc2s1	53	–	0.5	–	95	inhibition [16]: > 70%
CC1(C)Cc2cc(NC(=O)c3cnn4c(O)ccnc34)c(N3CCOCC3)cc2O1	> 20000	77 (≈ 31.5 µg/mL)	> 8400	–	–	–
COc1cc2ncccc2cc1NC(=O)c1cnn2cccnc12	370	–	52	–	2800	–
CNC(=O)CN1CCN(c2cc3c(cc2NC(=O)c2cnn4cccnc24)CC(C)(C)O3)CC1	60	23 (≈ 10.7 µg/mL)	3.5	13	–	–
O=C(Nc1cc2cccnc2cc1N1CCCCC1)c1cnn2cccnc12	–	–	–	–	–	Ki [6]: 8 nM
C[C@@]1(CO)Cc2cc(NC(=O)c3cnn4cccnc34)c(N3CCOCC3)cc2O1	–	10 (≈ 4.09 µg/mL)	–	27	–	–
O=C(Nc1cc2sc(N3CCOCC3)nc2cc1N1CCC(CO)CC1)c1cnn2cccnc12	8	–	0.5	8.4	24	fraction unbound at 4 h, 5 µM [9]: 0.02; clearance [10]: 18 mL/min/kg; F ([11]; BLD = below limit of detection): Bld; Vd [12]: 0.4 L/kg; AUC ([13]; BLD = below limit of detection): Bld; fraction unbound at 4 h, 5 µM [14]: 0.01; Cmax ([15]; BLD = below limit of detection): Bld
CC1(C)Cc2cc(NC(=O)c3cnn4cccnc34)c(N3CCCC3)cc2O1	140	7.1 (≈ 2.68 µg/mL)	–	–	–	–
CC1(C)Cc2cc(NC(=O)c3cnn4cccnc34)c(N3CCC(C(O)C(F)(F)F)CC3)cc2O1 (stereo not given)	56	1 (≈ 0.489 µg/mL)	–	–	–	–
CC1(C)Cc2cc(NC(=O)c3cnn4cccnc34)c(N3CCN(CCO)CC3)cc2O1	97	120 (≈ 52.4 µg/mL)	–	8.2	–	–
CC1(C)Cc2cc(NC(=O)c3cnn4cc(C#N)cnc34)c(N3CCOCC3)cc2O1	84	1 (≈ 0.418 µg/mL)	6.1	2.7	–	–
O=C(Nc1cc2sc(N3CCOCC3)nc2cc1N1CCOCC1)c1cnn2cccnc12	76	–	0.8	12	190	fraction unbound at 4 h, 5 µM [9]: 0.05; bioavailability [17]: 12%; Cmax [18]: 3300 nM; F [19]: 6%; bioavailability [11]: 5%; F [20]: 25%; Vd [12]: 0.9 L/kg; AUC(0-inf) [13]: 0.6 µM·h; fraction unbound at 4 h, 5 µM [14]: 0.01; AUC [21]: 12 µM·h; Cmax [22]: 2000 nM; inhibition [16]: > 70%; Cmax ([15]; read-out: Cmax): 200 nM; AUC [23]: 40 µM·h; Cmax [24]: 1300 nM; AUC(0-inf) [25]: 11 µM·h; Kinetic_solubility ([2]; buffer, pH 7.4, 24 h): Insoluble
CC(C)(O)[C@]1(C)Cc2cc(NC(=O)c3cnn4cccnc34)c(N3CCOCC3)cc2O1	170	150 (≈ 65.6 µg/mL)	7.3	21	–	–
CC1(C)Cc2cc(NC(=O)c3cnn4cc(C(N)=O)cnc34)c(N3CCOCC3)cc2O1	56	1 (≈ 0.436 µg/mL)	–	0.7	–	–
CC1(C)Cc2cc(NC(=O)c3cnn4cccnc34)c(N3CCCC(O)CC3)cc2O1 (stereo not given)	130	25 (≈ 10.5 µg/mL)	–	–	–	–
CC1(C)Cc2cc(NC(=O)c3cnn4cc(OC(F)F)cnc34)c(N3CCOCC3)cc2O1	> 20000	1 (≈ 0.459 µg/mL)	34	0.6	–	–
